Article PMC12736120, “First-in-Human Phase I Clinical Trial of SLC-391, a Novel and Selective AXL Inhibitor, in Patients with Advanced Solid Tumours” (Pharmaceuticals, 2025)
Where two headings read alike, the source gives them in different places.

Assay: Plasma pharmacokinetics, QD and BID cohorts (non-compartmental)
Type: in vivo, human
Settings: for Cmin, Mean / Cmin, Median / AUC / AUC(0-t) / Cmax / Tmax: plasma; for AR Factor (accumulation ratio), AUC0–12 / AR Factor (accumulation ratio), AUC0–last / AR Factor (accumulation ratio), Cmax: C1D21 vs C1D1; for AUC / AUC(0-t) / Cmax / Tmax: human, oral
Procedure: PK parameters were calculated by standard non-compartmental methods for SLC-391. Due to the long half-life of SLC-391 compared to the dosing interval, it was not possible to calculate a number of PK parameters, including plasma half-life and rate of elimination. Accumulation was assessed from the mean accumulation ratio factor (AR factor) calculated as the repeated dose (C1D21) mean value/single dose (C1D1) mean value for the PK parameters Cmax, AUC0–12, and AUC0–last for each dose group.
During QD dosing, blood samples for determination of SLC-391 plasma concentrations were collected predose and at 0.5, 1, 2, 3, 4, 6, 8, and 24 h after SLC-391 administration on cycle 1 day 1 (C1D1) and cycle 1 day 21 (C1D21). During BID dosing, blood samples were collected predose and at 1, 2, 3, 4, 6, 8, and 12 h after the first daily dose (before the second daily dose). Where possible, further samples were then collected at 13, 14, 22, and 24 h after the initial dose (predose C1D2). Blood samples were also collected on C1D21 (steady state) predose and at 1, 2, 3, 4, 6, 8, and 12 h after the first daily dose (before the second daily dose). Where possible, further samples were then collected at 13, 14, 22, and 24 h after the initial C1D21 dose (predose C2D1). An additional blood sample was also taken, where possible, at the end of treatment (EOT) visit.
After collection, blood samples were centrifuged, and plasma was separated and stored at −80 °C. Plasma concentrations of SLC-391 were measured by a validated analytical method involving liquid–liquid extraction followed by high-performance liquid chromatography (HPLC)–mass/mass spectroscopy assay using a Water Quattro Premier tandem quadrupole mass spectroscopy with Waters MassLynx data acquisition and processing software. Plasma analysis was carried out by Microconstants (San Diego, CA, USA) in compliance with the US FDA GLP regulations. The calibration range of the assay was from 0.100 to 100 ng/mL. Quality control samples prepared at 4 different analyte concentrations were analysed with each batch of samples against a separately prepared calibration standard. PK parameters were collected following single (day 1) and repeat dose (day 21) administration. PK parameters were summarised with appropriate descriptive statistics where possible (e.g., mean, geometric mean, median, maximum, minimum, and coefficient of variation). Descriptive PK parameters were determined by standard non-compartmental methods based on the concentration–time data of each subject. The nominal time was used for descriptive statistics calculations, and the actual sample collection times were used in PK analyses. PK analyses were performed using validated Phoenix WinNonlin Professional 8.3 (Certara, L.P., St. Louis, MO, USA).

## Nc1ncc(-c2cnn(C3CCNCC3)c2)cc1-c1nnc(CC2CC2)o1 [SLC-391, 3-(5-[cyclopropylmethyl]-1,3,4-oxadiazol-2-yl)-5-(1-[piperidin-4-yl]-1H-pyrazol-4-yl)-pyridin-2-amine]
25 mg, QD, C1D21
  Cmin, Mean: 10.3 ng/mL
  Cmin, Median: 7.8 ng/mL
50 mg, QD, C1D21
  Cmin, Mean: 34.9 ng/mL
  Cmin, Median: 34.9 ng/mL
75 mg BID, C1D21, mean, n=3, plasma
  Cmin: 147.5 ng/mL
75 mg BID, C1D21, median, n=3, plasma
  Cmin: 128.0 ng/mL
75 mg BID
  AR Factor (accumulation ratio), AUC0–12: 3.2
  AR Factor (accumulation ratio), AUC0–last: 3.2
  AR Factor (accumulation ratio), Cmax: 2.4
100 mg, QD, C1D21
  Cmin, Mean: 151.8 ng/mL
  Cmin, Median: 151.8 ng/mL
110 mg BID, C1D21, mean, n=3, plasma
  Cmin: 145.6 ng/mL
110 mg BID, C1D21, median, n=3, plasma
  Cmin: 90.2 ng/mL
110 mg BID
  AR Factor (accumulation ratio), AUC0–12: 3.5
  AR Factor (accumulation ratio), AUC0–last: 3.7
  AR Factor (accumulation ratio), Cmax: 2.6
125 mg, QD, C1D21
  Cmin, Mean: 33.7 ng/mL
  Cmin, Median: 42.0 ng/mL
150 mg BID, C1D21, mean, n=6, plasma
  Cmin: 243.5 ng/mL
150 mg BID, C1D21, median, n=6, plasma
  Cmin: 242.5 ng/mL
150 mg BID
  AR Factor (accumulation ratio), AUC0–12: 4.4
  AR Factor (accumulation ratio), AUC0–last: 3.9
  AR Factor (accumulation ratio), Cmax: 2.2
150 mg, QD, C1D21
  Cmin, Mean: 102.8 ng/mL
  Cmin, Median: 89.9 ng/mL
200 mg BID, C1D21, mean, n=2, plasma
  Cmin: 471.5 ng/mL
200 mg BID, C1D21, median, n=2, plasma
  Cmin: 471.5 ng/mL
200 mg BID
  AR Factor (accumulation ratio), AUC0–12: 8.7
  AR Factor (accumulation ratio), AUC0–last: 8.0
  AR Factor (accumulation ratio), Cmax: 5.0
25 mg, QD, C1D1, read-out: AUC0–12, Mean
  AUC: 177 ng·h/mL
25 mg, QD, C1D1, read-out: AUC0–12, Median
  AUC: 211 ng·h/mL
25 mg, QD, C1D1, read-out: AUC0–last, Mean
  AUC(0-t): 270 ng·h/mL
25 mg, QD, C1D1, read-out: AUC0–last, Median
  AUC(0-t): 302 ng·h/mL
25 mg, QD, C1D1, read-out: Cmax, Mean
  Cmax: 32.5 ng/mL
25 mg, QD, C1D1, read-out: Cmax, Median
  Cmax: 39.6 ng/mL
25 mg, QD, C1D1, read-out: Tmax, Mean
  Tmax: 2 h
25 mg, QD, C1D1, read-out: Tmax, Median
  Tmax: 2 h
25 mg, QD, C1D21, read-out: AUC0–12, Mean
  AUC: 286 ng·h/mL
25 mg, QD, C1D21, read-out: AUC0–12, Median
  AUC: 232 ng·h/mL
25 mg, QD, C1D21, read-out: AUC0–last, Mean
  AUC(0-t): 461 ng·h/mL
25 mg, QD, C1D21, read-out: AUC0–last, Median
  AUC(0-t): 366 ng·h/mL
25 mg, QD, C1D21, read-out: Cmax, Mean
  Cmax: 41.9 ng/mL
25 mg, QD, C1D21, read-out: Cmax, Median
  Cmax: 41.2 ng/mL
25 mg, QD, C1D21, read-out: Tmax, Mean
  Tmax: 2.7 h
25 mg, QD, C1D21, read-out: Tmax, Median
  Tmax: 2.1 h
50 mg, QD, C1D1, read-out: AUC0–12, Mean
  AUC: 382 ng·h/mL
50 mg, QD, C1D1, read-out: AUC0–12, Median
  AUC: 413 ng·h/mL
50 mg, QD, C1D1, read-out: AUC0–last, Mean
  AUC(0-t): 594 ng·h/mL
50 mg, QD, C1D1, read-out: AUC0–last, Median
  AUC(0-t): 643 ng·h/mL
50 mg, QD, C1D1, read-out: Cmax, Mean
  Cmax: 72.9 ng/mL
50 mg, QD, C1D1, read-out: Cmax, Median
  Cmax: 65.8 ng/mL
50 mg, QD, C1D1, read-out: Tmax, Mean
  Tmax: 2 h
50 mg, QD, C1D1, read-out: Tmax, Median
  Tmax: 1 h
50 mg, QD, C1D21, read-out: AUC0–12, Mean
  AUC: 706 ng·h/mL
50 mg, QD, C1D21, read-out: AUC0–12, Median
  AUC: 706 ng·h/mL
50 mg, QD, C1D21, read-out: AUC0–last, Mean
  AUC(0-t): 1210 ng·h/mL
50 mg, QD, C1D21, read-out: AUC0–last, Median
  AUC(0-t): 1210 ng·h/mL
50 mg, QD, C1D21, read-out: Cmax, Mean
  Cmax: 99.2 ng/mL
50 mg, QD, C1D21, read-out: Cmax, Median
  Cmax: 99.2 ng/mL
50 mg, QD, C1D21, read-out: Tmax, Mean
  Tmax: 1.5 h
50 mg, QD, C1D21, read-out: Tmax, Median
  Tmax: 1.5 h
75 mg, 75 mg BID, C1D1, mean, n=3, plasma, read-out: AUC0–12
  AUC: 706 ng·h/mL
75 mg, 75 mg BID, C1D1, mean, n=3, plasma, read-out: AUC0–last
  AUC(0-t): 1390 ng·h/mL
75 mg, 75 mg BID, C1D1, mean, n=3, plasma, read-out: Cmax
  Cmax: 114 ng/mL
75 mg, 75 mg BID, C1D1, mean, n=3, plasma, read-out: Tmax
  Tmax: 9.4 h
75 mg, 75 mg BID, C1D1, median, n=3, plasma, read-out: AUC0–12
  AUC: 541 ng·h/mL
75 mg, 75 mg BID, C1D1, median, n=3, plasma, read-out: AUC0–last
  AUC(0-t): 1110 ng·h/mL
75 mg, 75 mg BID, C1D1, median, n=3, plasma, read-out: Cmax
  Cmax: 93.4 ng/mL
75 mg, 75 mg BID, C1D1, median, n=3, plasma, read-out: Tmax
  Tmax: 3 h
75 mg, 75 mg BID, C1D21, mean, n=3, plasma, read-out: AUC0–12
  AUC: 2290 ng·h/mL
75 mg, 75 mg BID, C1D21, mean, n=3, plasma, read-out: AUC0–last
  AUC(0-t): 4420 ng·h/mL
75 mg, 75 mg BID, C1D21, mean, n=3, plasma, read-out: Cmax
  Cmax: 267 ng/mL
75 mg, 75 mg BID, C1D21, mean, n=3, plasma, read-out: Tmax
  Tmax: 3 h
75 mg, 75 mg BID, C1D21, median, n=3, plasma, read-out: AUC0–12
  AUC: 2290 ng·h/mL
75 mg, 75 mg BID, C1D21, median, n=3, plasma, read-out: AUC0–last
  AUC(0-t): 4300 ng·h/mL
75 mg, 75 mg BID, C1D21, median, n=3, plasma, read-out: Cmax
  Cmax: 331 ng/mL
75 mg, 75 mg BID, C1D21, median, n=3, plasma, read-out: Tmax
  Tmax: 1.9 h
100 mg, QD, C1D1, n 1, read-out: AUC0–12, Mean
  AUC: 1350 ng·h/mL
100 mg, QD, C1D1, n 1, read-out: AUC0–12, Median
  AUC: 1350 ng·h/mL
100 mg, QD, C1D1, read-out: AUC0–last, Mean
  AUC(0-t): 875 ng·h/mL
100 mg, QD, C1D1, read-out: AUC0–last, Median
  AUC(0-t): 460 ng·h/mL
100 mg, QD, C1D1, read-out: Cmax, Mean
  Cmax: 141 ng/mL
100 mg, QD, C1D1, read-out: Cmax, Median
  Cmax: 112 ng/mL
100 mg, QD, C1D1, read-out: Tmax, Mean
  Tmax: 0.8 h
100 mg, QD, C1D1, read-out: Tmax, Median
  Tmax: 0.9 h
100 mg, QD, C1D21, read-out: AUC0–last, Mean
  AUC(0-t): 1800 ng·h/mL
100 mg, QD, C1D21, read-out: AUC0–last, Median
  AUC(0-t): 1800 ng·h/mL
100 mg, QD, C1D21, read-out: Cmax, Mean
  Cmax: 436 ng/mL
100 mg, QD, C1D21, read-out: Cmax, Median
  Cmax: 436 ng/mL
100 mg, QD, C1D21, read-out: Tmax, Mean
  Tmax: 1.9 h
100 mg, QD, C1D21, read-out: Tmax, Median
  Tmax: 1.9 h
110 mg, 110 mg BID, C1D1, mean, n=3, plasma, read-out: AUC0–12
  AUC: 639 ng·h/mL
110 mg, 110 mg BID, C1D1, mean, n=3, plasma, read-out: AUC0–last
  AUC(0-t): 1170 ng·h/mL
110 mg, 110 mg BID, C1D1, mean, n=3, plasma, read-out: Cmax
  Cmax: 95.2 ng/mL
110 mg, 110 mg BID, C1D1, mean, n=3, plasma, read-out: Tmax
  Tmax: 3 h
110 mg, 110 mg BID, C1D1, median, n=3, plasma, read-out: AUC0–12
  AUC: 593 ng·h/mL
110 mg, 110 mg BID, C1D1, median, n=3, plasma, read-out: AUC0–last
  AUC(0-t): 1130 ng·h/mL
